This is an account of results in patent US8389721B2, “Solubilized topoisomerase poisons” (Rutgers, The State University of New Jersey, priority 2001, dated 2013).

Where two headings read alike, the source gives them in different places.

Data set [1] deals with RPMI 8402. Kind of data set: MTT-microtiter plate tetrazolinium cytotoxicity assay (Test B). Format: cell-based, human. The method, then: (§1) Test B. Inhibition of Cell Growth: MTT-Microtiter Plate Tetrazolinium Cytotoxicity Assay (RPMI 8402, CPT-K5, U937, U937/CR Cells)
(§2) The cytotoxicity is determined using the MTT-microtiter plate tetrazolinium cytotoxicity assay (MTA), see Chen A. Y. et al. Cancer Res. 1993, 53, 1332; Mosmann, T. J., J. Immunol. Methods 1983, 65, 55; and Carmichael, J. et al. Cancer Res. 1987, 47, 936. The human lymphoblast RPMI 8402 and its camptothecin-resistant variant cell line, CPT-K5 were provided by Dr. Toshiwo Andoh (Anchi Cancer Research Institute, Nagoya, Japan), see Andoh, T.; Okada, K, Adv. in Pharmacology 1994, 29B, 93. Human U-937 myeloid leukemia cells and U-937/CR cells were described by Rubin et al., J. Biol. Chem., 1994, 269, 2433-2439. The cytotoxicity assay is performed by using 96-well microtiter plates using 2000 cells/well, in […] of growth medium. Cells are grown in suspension at 37° C. in 5% CO2 and maintained by regular passage in RPMI medium supplemented with 10% heat-inactivated fetal bovine serum, L-glutamine (2 mM), penicillin (100 U/mL), and streptomycin (0.1 mg/mL). For determination of IC50, cells are exposed continuously for 3-4 days to varying concentrations of drug, and MTT assays were performed at the end of the fourth day. […] All assays are performed at least twice in 6 replicate wells. All assays are performed under the direction of Dr. L. F. Liu, Department of Pharmacology, The University of Medicine and Dentistry of New Jersey, Robert Wood Johnson Medical School, Piscataway, N.J.

The subject of data set [2] is CPT-K5. Put plainly: MTT-microtiter plate tetrazolinium cytotoxicity assay (Test B), camptothecin-resistant variant. The format is cell-based. The settings on record: Homo sapiens. The method, then: as §1, §2
[3] abbreviates: human lymphoblast RPMI 8402 cells, continuous exposure 3-4 days, MTT, read-out: RPMI 8402 [μM] IC50 values.
Where [4] appears, read: camptothecin-resistant variant cell line CPT-K5, continuous exposure 3-4 days, MTT, read-out: CPT-K5 IC50 values.

As usually defined, the melting point is the temperature of the solid-liquid transition. `COc1cc2c(=O)n(CCN3CCCCC3)c3c4cc5c(cc4nnc3c2cc1OC)OCO5` [Example 6, 2,3-Dimethoxy-8,9-methylenedioxy-11-[2-(piperidin-1-yl)ethyl]-11H-5,6,11-triaza-chrysen-12-one] registered a melting point of 294 to 295 °C. One may read the IC50 as the point on the concentration scale where inhibition reaches its midpoint. Regarding `CCc1c2c(nc3ccc(OC(=O)N4CCC(N5CCCCC5)CC4)cc13)-c1cc3c(c(=O)n1C2)COC(=O)[C@]3(O)CC` [Irinotecan], the IC50 in data set [1] (setting [3]) is 0.57 µM; in data set [2] (setting [4]) it was over 100000 nM. In the case of `COc1cc2c(=O)n(CCN3CCCC3)c3c4cc5c(cc4nnc3c2cc1OC)OCO5` [Example 5, 2,3-Dimethoxy-8,9-methylenedioxy-11-[2-(pyrrolidin-1-yl)ethyl]-11H-5,6,11-triaza-chrysen-12-one], the melting point was 229 °C. The molecule `COc1cc2c(=O)n(CCOCCO)c3c4cc5c(cc4ncc3c2cc1OC)OCO5` [Example 14, 8,9-Dimethoxy-2,3-methylenedioxy-5-[2-(2-hydroxyethoxy)ethyl]-5H-dibenzo[c,h]1,6-naphthyridin-6-one] showed a melting point of 235 °C. On to `COc1cc2c(=O)n(CCCN(C)C)c3c4cc5c(cc4ncc3c2cc1OC)OCO5` [Example 11, 8,9-Dimethoxy-2,3-methylenedioxy-5-[3-(N,N-dimethylamino)propyl]-5H-dibenzo[c,h]1,6-naphthyridin-6-one], for which the melting point is 262 to 264 °C (dec.). Still for that read-out and setting: the value for `COc1cc2c(cc1OC)-c1cnc3cc4c(cc3c1N(CCN(C)C)C2)OCO4` [Example 17, 8,9-Dimethoxy-2,3-methylenedioxy-5-[2-(N,N-dimethylamino)ethyl]-5,6-dihydro-dibenzo[c,h]1,6-naphthyridine] was 271 to 273 °C (dec.). `CC[C@@]1(O)C(=O)OCc2c1cc1n(c2=O)Cc2cc3ccccc3nc2-1` [Camptothecin]: the IC50 in data set [1] (Homo sapiens, RPMI 8402, read-out: RPMI 8402 [μM] IC50 values) was determined as 0.002 µM; in data set [2] (CPT-K5, read-out: CPT-K5 IC50 values) it was 4500 nM. In the case of `COc1cc2c(=O)n(CC3CCCO3)c3c4cc5c(cc4nnc3c2cc1OC)OCO5` (stereo not drawn) [Example 4, 2,3-Dimethoxy-8,9-methylenedioxy-11-(2-tetrahydrofuranyl)methyl-11H-5,6,11-triazachrysen-12-one], the melting point was 300 to 303 °C (dec.).

`COc1cc2c(=O)n(C(C)CN(C)C)c3c4cc5c(cc4ncc3c2cc1OC)OCO5` (stereo not drawn) [Example 8, 8,9-Dimethoxy-2,3-methylenedioxy-5-[2-(N,N-dimethylamino)-1-methylethyl]-5H-dibenzo[c,h]1,6-naphthyridin-6-one] had a melting point of 186 to 187 °C. For `COc1cc2c(=O)n(CCN3CCCC3)c3c4cc5c(cc4ncc3c2cc1OC)OCO5` [Example 9, 8,9-Dimethoxy-2,3-methylenedioxy-5-[2-(pyrrolidin-1-yl)ethyl]-5H-dibenzo[c,h]1,6-naphthyridin-6-one], the melting point is 255 to 257 °C (dec.).

`COc1cc2c(=O)n(CC3CCCO3)c3c4cc5c(cc4ncc3c2cc1OC)OCO5` (stereo not drawn) [Example 12, 8,9-Dimethoxy-2,3-methylenedioxy-5-(2-tetrahydrofuranyl)methyl-5H-dibenzo[c,h]1,6-naphthyridin-6-one] showed a melting point of 270 to 273 °C.

Take `CCN(CC)CCn1c(=O)c2cc(OC)c(OC)cc2c2cnc3cc4c(cc3c21)OCO4` [Example 19, 8,9-Dimethoxy-2,3-methylenedioxy-5-[2-(N,N-diethylamino)ethyl]-5H-dibenzo[c,h]1,6-naphthyridin-6-one]: the melting point was 221 to 223 °C (dec.). On the same count and under the same terms, then `COc1cc2c(=O)n(CCO)c3c4cc5c(cc4ncc3c2cc1OC)OCO5` [Example 13, 8,9-Dimethoxy-2,3-methylenedioxy-5-[2-(hydroxy)ethyl]-5H-dibenzo[c,h]1,6-naphthyridin-6-one], with 285 to 286 °C; and `COc1cc2c(cc1OC)-c1cnc3cc4c(cc3c1N(C(C)CN(C)C)C2)OCO4` (stereo not drawn) [Example 18, 8,9-Dimethoxy-2,3-methylenedioxy-5-[2-(N,N-dimethylamino)-1-methylethyl]-5,6-dihydro-dibenzo[c,h]1,6-naphthyridine], with 153 to 154 °C.

With `CC[C@@]1(O)C(=O)OCc2c1cc1n(c2=O)Cc2cc3c(CN(C)C)c(O)ccc3nc2-1` [Topotecan], the figures for the IC50 in data set [1] (setting [3]) and in data set [2] (setting [4]) were 0.005 µM and over 10000 nM, respectively.

As for `COc1cc2c(=O)n(CCN3CCN(C)CC3)c3c4cc5c(cc4ncc3c2cc1OC)OCO5` [Example 10, 8,9-Dimethoxy-2,3-methylenedioxy-5-[2-(4-methylpiperazin-1-yl)ethyl]-5H-dibenzo[c,h]1,6-naphthyridin-6-one], the melting point lay within 244 to 246 °C. On to `COc1cc2c(=O)n(CCN(C)C)c3c4cc5c(cc4nnc3c2cc1OC)OCO5` [Compound 5, 11,12-dihydro-2,3-dimethoxy-8,9-methylenedioxy-11-[2-(dimethylamino)ethyl]-5,6,11-triazachrysen-12-one], for which the results for the IC50 in data set [1] (setting [3]) and in data set [2] (setting [4]) were 0.003 µM and 1200 nM, respectively.
